According to patent publication US12491172B2, “Treatment of diabetes” (priority 2019, dated 2025):

Legend:
Assay type in all cases: cell-based, mouse
HIF-1α target genes = test: Gene expression of HIF-1α target genes in isolated islets (RT-qPCR)
[1] = test system: isolated pancreatic islets; test: Measurements of cytoplasmic free Ca2+-concentration in islets
[2] = test system: isolated pancreatic islets; test: Cellular hypoxia in isolated islets (pimonidazole adducts)
Description: For experiments using the hypoxic marker pimonidazole, islets were cultured overnight in RPMI 1640 with 11 mM glucose and fasted for 1 hour in RPMI 1640 with 5.5 mM glucose. Subsequently islets were moved to medium containing 5.5 mM, 11 mM or 22 mM glucose, either with or without the glucokinase activator 10 μM of the glucokinase activator GKA50 (Sigma), 50 μM nifedipine (Sigma) or 100 μM diaxozide (Sigma) as indicated (FIGS. 1A and B). Islets were cultured during 8 hours before lysis. During the last 2 hours pimonidazole (Hypoxyprobe, HPI, Inc) was added to the medium. The hypoxic sample were cultured under 8% O2 during the last 2 hours before the lysis.
Islets were sonicated in RIPA buffer (50 mM Tris-HCl pH7.4, 150 mM NaCl, 1% NP-40, 0.5% Na deoxycholate, 0.1% SDS, 1 mM EDTA, protease inhibitor mix (Complete-Mini, Roche), 0.5 mM phenylmethylsulfonyl fluoride (PMSF) and 0.5 mM dithiothreitol). Lysates were cleared by centrifugation for 30 min at 14.000 r.p.m., and proteins were separated by SDS-PAGE and blotted onto nitrocellulose membranes. […]

HIF-1α = HIF-1α and GLUT1 protein levels in isolated pancreatic islets (immunoblotting); details: islets treated with GKA50 alone, 20 hours
[3] = test system: isolated pancreatic islets; test: Static batch incubation (insulin secretion) of isolated islets
[4] = islets treated with GKA50 alone, 20 hours

Structure (SMILES)	Gck mRNA level (HIF-1α target genes; islets treated with GKA50, compared to untreated islets)	gene expression of Glut1, Igfbp3, Hk2, Pgk1 and Pdk1 (HIF-1α target genes; [4])	mRNA expression of Ldha and Bnip3 (HIF-1α target genes; [4])	speed of [Ca2+]i response to glucose ([1]; 20 μM GKA50 with or without 50 μM PX-478)	basal [Ca2+]i oscillations ([1]; 3 mM glucose, after 20 hours 20 μM GKA50 with or without 50 μM PX-478 and 2 hours fasting)	formation of pimonidazole adducts (cellular hypoxia) ([2]; isolated islets, 8 hours, 10 μM GKA50)	HIF-1α stabilization and GLUT1 protein levels (HIF-1α)	basal insulin secretion ([3]; 3.3 mM glucose, after 20 hours treatment and 2 hours fasting)	insulin release at high glucose concentration ([3]; 16.7 mM glucose, after 20 hours treatment)	secretory index ([3]; GKA50-treated islets in absence (1.2) or presence (3.4) of the HIF-1α inhibitor) [fold]	insulin content ([3]; islets treated with GKA50 with or without PX-478)	levels of pimonidazole adducts ([2]; islets treated with GKA50 in the presence of 50 μM nifedipine or 100 μM diaxozide)
COC[C@H](C)Oc1cc(O[C@@H](C)Cc2ccccc2)cc(C(=O)Nc2ccc(C(=O)O)cn2)c1 [GKA50]	reduced	Induction	not induced	faster response to glucose	displayed [Ca^2+]i oscillations already under basal low glucose concentration	increase in the formation of pimonidazole adducts	led to HIF-1α stabilization and increased GLUT1 protein levels	dose response-dependent increase in basal insulin secretion	without impacting on insulin release at high glucose concentration	1.2	no impact on insulin content	
CC1=Nc2ccc(Cl)cc2S(=O)(=O)N1 [diaxozide]												no decrease in levels of pimonidazole adducts
